IC50 and viability, T/C data for four molecules are collected here from PubChem BioAssay AID2060910 (Molecular Pharmacology Branch, DTP, NCI, 2025).

pIC50: −log10 of the molar value.

The experiment has as its system 242566-281-R-J2-PDC complex spheroid viability. Nature of the experiment: Anticancer human tumor 242566-281-R-J2-PDC patient-derived pancreatic carcinoma cell line growth inhibition [RAS]. The conditions noted are these: for pIC50: curve of first compound; for viability, T/C: stronger effect = lower value. A digest of the protocol: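 Multi-cell-type spheroids: tumor cells plus HUVEC endothelial cells and mesenchymal stem cells. RAS-pathway inhibitors were combined with targeted agents, each dosed in half-log steps down from clinical Cmax, or from 10 microM when Cmax was unknown.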
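Note: spheroids exposed to compound for 7 days before readout.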
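Throughout, for viability, T/C: 100% = DMSO vehicle control wells.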

For orientation: pIC50 means −log10 of the IC50, conventionally taken in molar units. Usually viability, T/C stands for the ratio of treated to control. Turning to `CC(C)n1nc(-c2ccc3oc(N)nc3c2)c2c(N)ncnc21` + CCn1c(-c2cccnc2C(C)OC)c2c3cc(ccc31)N1CCOC(CC(NC(=O)C(C(C)C)N(C)C(=O)C3(F)CCN(C(=O)C#CC(C)(C)N(C)C)CC3)C(=O)N3CCCC(N3)C(=O)OCC(C)(C)C2)C1, the pIC50 was 7.36 (second compound 0.000949 µM); 7.35 (second compound 0.003 µM); 7.60 (second compound 0.00949 µM); 7.56 (second compound 0.03 µM); 7.69 (second compound 0.0949 µM); 7.74 (second compound 0.3 µM). Further, the viability, T/C is, setting by setting: (second compound 0.000949 µM, first compound 0.000316 µM) 120%; (second compound 0.000949 µM, first compound 0.001 µM) 86.6%; (second compound 0.000949 µM, first compound 0.00316 µM) 81.6%; (second compound 0.000949 µM, first compound 0.01 µM) 79.8%; (second compound 0.000949 µM, first compound 0.0316 µM) 62.2%; (second compound 0.000949 µM, first compound 0.1 µM) 30.4%. Further, the viability, T/C is, setting by setting: (second compound 0.003 µM, first compound 0.000316 µM) 95.6%; (second compound 0.003 µM, first compound 0.001 µM) 80.3%; (second compound 0.003 µM, first compound 0.00316 µM) 76.2%; (second compound 0.003 µM, first compound 0.01 µM) 73%; (second compound 0.003 µM, first compound 0.0316 µM) 61.6%; (second compound 0.003 µM, first compound 0.1 µM) 30.9%. In addition, the viability, T/C (second compound 0.00949 µM, first compound 0.000316 µM) is 102%; the viability, T/C (second compound 0.00949 µM, first compound 0.001 µM) is 77.9%; the viability, T/C (second compound 0.00949 µM, first compound 0.00316 µM) is 87.7%; the viability, T/C (second compound 0.00949 µM, first compound 0.01 µM) is 75%; the viability, T/C (second compound 0.00949 µM, first compound 0.0316 µM) is 43.4%; the viability, T/C (second compound 0.00949 µM, first compound 0.1 µM) is 33.9%. The viability, T/C is 89.5% (second compound 0.03 µM, first compound 0.000316 µM); 87.6% (second compound 0.03 µM, first compound 0.001 µM); 92.4% (second compound 0.03 µM, first compound 0.00316 µM); 72.7% (second compound 0.03 µM, first compound 0.01 µM); 47.6% (second compound 0.03 µM, first compound 0.0316 µM); 37.9% (second compound 0.03 µM, first compound 0.1 µM). The viability, T/C reads like this: (second compound 0.0949 µM, first compound 0.000316 µM) 76.1%; (second compound 0.0949 µM, first compound 0.001 µM) 78.8%; (second compound 0.0949 µM, first compound 0.00316 µM) 83.5%; (second compound 0.0949 µM, first compound 0.01 µM) 67.2%; (second compound 0.0949 µM, first compound 0.0316 µM) 39.5%; (second compound 0.0949 µM, first compound 0.1 µM) 31.9%. The viability, T/C runs as follows: (second compound 0.3 µM, first compound 0.000316 µM) 88%; (second compound 0.3 µM, first compound 0.001 µM) 82%; (second compound 0.3 µM, first compound 0.00316 µM) 70.5%; (second compound 0.3 µM, first compound 0.01 µM) 58.8%; (second compound 0.3 µM, first compound 0.0316 µM) 42.4%; (second compound 0.3 µM, first compound 0.1 µM) 30%.
As to `O=C(c1ccc(F)c(F)c1Nc1ccc(I)cc1F)N1CC(O)([C@@H]2CCCCN2)C1`, the viability, T/C runs as follows: (compound 0.1 µM) 64.1% [middle of 4 runs]; (compound 0.316 µM) 41.3% [middle of 4 runs].
For `Cc1nc(N2CCC3(CC2)COC(C)C3N)c(CO)nc1Sc1ccnc(N)c1Cl` (stereo not given) + C#Cc1c(F)ccc2cc(O)cc(-c3ncc4c(N5CC6CCC(C5)N6)nc(OCC56CCCN5CC(F)C6)nc4c3F)c12, the pIC50 (second compound 0.0316 µM) is 6.22; the pIC50 (second compound 0.1 µM) is 6.47; the negative-log IC50 (pIC50) (second compound 0.316 µM) is 6.74; the pIC50 (second compound 1 µM) is 7.21; the pIC50 (second compound 3.16 µM) is above 7.50; the pIC50 (second compound 10 µM) is above 7.50. The viability, T/C was 69.6% (second compound 0.0316 µM, first compound 0.0316 µM); 81% (second compound 0.0316 µM, first compound 0.1 µM); 62.2% (second compound 0.0316 µM, first compound 0.316 µM); 40.9% (second compound 0.0316 µM, first compound 1 µM); 37.8% (second compound 0.0316 µM, first compound 3.16 µM); 43.5% (second compound 0.0316 µM, first compound 10 µM). The viability, T/C by setting is: (second compound 0.1 µM, first compound 0.0316 µM) 80.3%; (second compound 0.1 µM, first compound 0.1 µM) 65.8%; (second compound 0.1 µM, first compound 0.316 µM) 51.1%; (second compound 0.1 µM, first compound 1 µM) 43%; (second compound 0.1 µM, first compound 3.16 µM) 34.5%; (second compound 0.1 µM, first compound 10 µM) 43%. Further, the viability, T/C is 69.9% (second compound 0.316 µM, first compound 0.0316 µM); 54.3% (second compound 0.316 µM, first compound 0.1 µM); 47.1% (second compound 0.316 µM, first compound 0.316 µM); 38.9% (second compound 0.316 µM, first compound 1 µM); 37% (second compound 0.316 µM, first compound 3.16 µM); 36.5% (second compound 0.316 µM, first compound 10 µM). Moreover, the viability, T/C is 58.1% (second compound 1 µM, first compound 0.0316 µM); 45.8% (second compound 1 µM, first compound 0.1 µM); 36.6% (second compound 1 µM, first compound 0.316 µM); 34.6% (second compound 1 µM, first compound 1 µM); 31.2% (second compound 1 µM, first compound 3.16 µM); 41.1% (second compound 1 µM, first compound 10 µM). Also, the viability, T/C (second compound 3.16 µM, first compound 0.0316 µM) was 48.4%; the viability, T/C (second compound 3.16 µM, first compound 0.1 µM) was 49.9%; the viability, T/C (second compound 3.16 µM, first compound 0.316 µM) was 40.9%; the viability, T/C (second compound 3.16 µM, first compound 1 µM) was 35.1%; the viability, T/C (second compound 3.16 µM, first compound 3.16 µM) was 42.8%; the viability, T/C (second compound 3.16 µM, first compound 10 µM) was 44.5%. Further, the viability, T/C runs as follows: (second compound 10 µM, first compound 0.0316 µM) 50%; (second compound 10 µM, first compound 0.1 µM) 46.6%; (second compound 10 µM, first compound 0.316 µM) 39.4%; (second compound 10 µM, first compound 1 µM) 42.9%; (second compound 10 µM, first compound 3.16 µM) 41.4%; (second compound 10 µM, first compound 10 µM) 38.4%.
`CC(=O)OC12COC1CC(O)C1(C)C(=O)C(O)C3=C(C)C(OC(=O)C(O)C(NC(=O)OC(C)(C)C)c4ccccc4)CC(O)(C(OC(=O)c4ccccc4)C21)C3(C)C` (stereo not given): the viability, T/C runs as follows: (compound 0.0316 µM) 54.6% [middle of 4 runs]; (compound 0.316 µM) 47.6% [middle of 4 runs]; (compound 1 µM) 43.5% [middle of 4 runs]; (compound 3.16 µM) 51.3% [middle of 4 runs].
